For 1 compound, remaining activity results are on record in article PMC4579270, “Identification and Characterization of an Irreversible Inhibitor of CDK2” (Chemistry & Biology, 2015).

Common to all, as to assay: Dundee protein kinase screen
Type in all cases: biochemical

In one test the target is CAMKKβ (Homo sapiens, UniProt Q96RR4). Particulars: read-out: %Remaining activity at 1µM NU6300. In short, it runs like this:
(§1)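 Selectivity panel of 131 protein kinases, inhibitor tested at a single concentration of 1 µM; values are % kinase activity remaining, mean of duplicates. Re-test of selected kinases used 0.5 µM in the standard format and again after a 4 hour pre-incubation with the inhibitor.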

In a further test the target is DAPK1 (Homo sapiens, UniProt P53355). Particulars: DAPK1, 1µM; read-out: %Remaining activity at 1µM NU6300. In short, it runs like this: as §1
For a further test, the target named is DYRK3 (Homo sapiens, UniProt O43781). Particulars: DYRK3, 1µM; read-out: %Remaining activity at 1µM NU6300. In short, it runs like this: as §1
Another test addresses EPH-B1 (Homo sapiens, UniProt P54762). Particulars: EPH-B1, 1µM; read-out: %Remaining activity at 1µM NU6300. The essentials: as §1
The next test concerns the target EPH-B2 (Homo sapiens, UniProt P29323). Particulars: EPH-B2, 1µM; read-out: %Remaining activity at 1µM NU6300. The essentials:
as §1

Another test concerns the target ERK1 (Homo sapiens, UniProt P27361). Particulars: ERK1, 1µM; read-out: %Remaining activity at 1µM NU6300. In short, it runs like this:
as §1

The next test has as its target HER4 (Homo sapiens, UniProt Q15303). Particulars: HER4, 1µM; read-out: %Remaining activity at 1µM NU6300. In short, it runs like this:
as §1

For the next test, the target named is HIPK2 (Homo sapiens, UniProt Q9H2X6). Particulars: HIPK2, 1µM; read-out: %Remaining activity at 1µM NU6300. The essentials:
as §1

A further test concerns the target MKK6 (Homo sapiens, UniProt P52564). Particulars: MKK6, 1µM; read-out: %Remaining activity at 1µM NU6300. The essentials:
as §1

The target in a further test is NEK6 (Homo sapiens, UniProt Q9HC98). Particulars: NEK6, 1µM; read-out: %Remaining activity at 1µM NU6300. In short, it runs like this:
as §1

The target in another test is PAK2 (Homo sapiens, UniProt Q13177). Particulars: PAK2, 1µM; read-out: %Remaining activity at 1µM NU6300. The essentials:
as §1

The next test deals with PAK4 (Homo sapiens, UniProt O96013). Particulars: PAK4, 1µM; read-out: %Remaining activity at 1µM NU6300. The essentials: as §1
For the next test, the target named is SGK1 (Homo sapiens, UniProt O00141). Particulars: SGK1, 1µM; read-out: %Remaining activity at 1µM NU6300. The essentials: as §1
Another test has as its target p38γ MAPK (Homo sapiens, UniProt P53778). Particulars: read-out: %Remaining activity at 1µM NU6300. In short, it runs like this:
as §1

HER4, sequence (Q15303 26-1308): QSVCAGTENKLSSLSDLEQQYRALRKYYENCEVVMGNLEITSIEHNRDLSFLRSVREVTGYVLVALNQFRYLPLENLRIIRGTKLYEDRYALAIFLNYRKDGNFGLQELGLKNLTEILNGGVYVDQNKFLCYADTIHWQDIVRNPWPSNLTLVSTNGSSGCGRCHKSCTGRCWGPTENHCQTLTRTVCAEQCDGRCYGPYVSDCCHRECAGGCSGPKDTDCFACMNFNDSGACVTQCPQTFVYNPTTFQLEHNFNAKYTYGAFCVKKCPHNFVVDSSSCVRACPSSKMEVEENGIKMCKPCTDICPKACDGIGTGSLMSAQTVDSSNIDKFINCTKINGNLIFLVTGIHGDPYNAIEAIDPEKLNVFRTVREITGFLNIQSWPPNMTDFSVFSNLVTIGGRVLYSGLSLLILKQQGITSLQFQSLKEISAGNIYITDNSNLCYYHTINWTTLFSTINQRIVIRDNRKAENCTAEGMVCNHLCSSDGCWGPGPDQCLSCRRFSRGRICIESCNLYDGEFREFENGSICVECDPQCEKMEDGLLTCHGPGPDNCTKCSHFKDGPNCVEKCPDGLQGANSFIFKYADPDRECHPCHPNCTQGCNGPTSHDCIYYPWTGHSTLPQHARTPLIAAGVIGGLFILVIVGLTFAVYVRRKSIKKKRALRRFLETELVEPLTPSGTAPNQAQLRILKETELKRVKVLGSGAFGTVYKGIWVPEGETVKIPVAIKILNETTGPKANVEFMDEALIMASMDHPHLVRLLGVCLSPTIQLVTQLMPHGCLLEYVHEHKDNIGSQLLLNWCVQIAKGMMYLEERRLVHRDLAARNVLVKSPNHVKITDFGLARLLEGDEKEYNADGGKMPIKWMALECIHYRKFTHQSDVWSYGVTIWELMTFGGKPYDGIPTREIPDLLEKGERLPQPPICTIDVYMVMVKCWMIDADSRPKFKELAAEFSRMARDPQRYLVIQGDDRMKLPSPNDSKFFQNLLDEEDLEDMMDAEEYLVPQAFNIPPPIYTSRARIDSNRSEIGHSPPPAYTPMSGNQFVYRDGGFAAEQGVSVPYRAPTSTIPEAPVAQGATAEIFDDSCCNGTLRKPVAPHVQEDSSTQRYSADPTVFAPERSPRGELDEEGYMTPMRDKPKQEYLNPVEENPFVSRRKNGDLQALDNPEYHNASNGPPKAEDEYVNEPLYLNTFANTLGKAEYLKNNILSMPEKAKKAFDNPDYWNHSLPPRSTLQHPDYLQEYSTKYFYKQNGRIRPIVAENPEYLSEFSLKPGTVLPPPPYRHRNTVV
p38γ MAPK, sequence (P53778 whole entry): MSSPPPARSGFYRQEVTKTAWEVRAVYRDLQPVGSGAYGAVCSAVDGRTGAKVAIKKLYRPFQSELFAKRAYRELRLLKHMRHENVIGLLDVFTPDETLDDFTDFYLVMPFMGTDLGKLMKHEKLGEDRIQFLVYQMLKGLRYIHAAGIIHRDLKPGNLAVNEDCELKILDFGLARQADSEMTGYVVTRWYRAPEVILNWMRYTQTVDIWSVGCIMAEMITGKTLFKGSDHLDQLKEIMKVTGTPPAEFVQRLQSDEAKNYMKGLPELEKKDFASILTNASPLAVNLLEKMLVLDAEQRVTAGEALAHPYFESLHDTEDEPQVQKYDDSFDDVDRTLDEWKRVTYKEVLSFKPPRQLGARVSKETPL
ERK1, sequence (P27361 whole entry): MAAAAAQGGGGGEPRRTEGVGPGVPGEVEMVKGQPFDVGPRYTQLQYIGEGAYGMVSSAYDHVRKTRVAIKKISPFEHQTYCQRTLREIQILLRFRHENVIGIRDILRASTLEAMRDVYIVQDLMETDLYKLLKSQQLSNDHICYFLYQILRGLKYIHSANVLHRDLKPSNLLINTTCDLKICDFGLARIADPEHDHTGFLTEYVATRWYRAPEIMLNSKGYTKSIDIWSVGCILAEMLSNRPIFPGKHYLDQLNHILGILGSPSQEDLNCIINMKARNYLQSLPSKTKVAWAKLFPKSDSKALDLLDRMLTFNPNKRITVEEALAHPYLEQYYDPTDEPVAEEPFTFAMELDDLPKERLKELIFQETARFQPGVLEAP
PAK4, sequence (O96013 whole entry): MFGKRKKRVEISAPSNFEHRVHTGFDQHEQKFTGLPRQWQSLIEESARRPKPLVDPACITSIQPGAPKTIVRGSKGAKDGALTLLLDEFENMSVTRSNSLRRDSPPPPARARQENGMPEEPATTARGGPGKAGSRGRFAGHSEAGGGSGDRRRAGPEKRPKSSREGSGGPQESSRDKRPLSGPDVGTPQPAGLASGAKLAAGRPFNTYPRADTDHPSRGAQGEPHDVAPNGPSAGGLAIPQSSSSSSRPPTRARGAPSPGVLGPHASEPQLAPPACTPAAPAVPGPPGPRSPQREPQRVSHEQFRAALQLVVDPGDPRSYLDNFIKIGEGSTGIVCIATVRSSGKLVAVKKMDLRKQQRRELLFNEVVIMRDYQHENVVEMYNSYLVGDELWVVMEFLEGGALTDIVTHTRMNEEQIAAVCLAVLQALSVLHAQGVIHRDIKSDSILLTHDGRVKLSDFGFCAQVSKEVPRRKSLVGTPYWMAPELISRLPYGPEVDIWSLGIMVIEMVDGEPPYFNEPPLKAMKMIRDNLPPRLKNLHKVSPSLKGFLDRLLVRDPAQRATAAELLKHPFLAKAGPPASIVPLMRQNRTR
HIPK2, sequence (Q9H2X6 whole entry): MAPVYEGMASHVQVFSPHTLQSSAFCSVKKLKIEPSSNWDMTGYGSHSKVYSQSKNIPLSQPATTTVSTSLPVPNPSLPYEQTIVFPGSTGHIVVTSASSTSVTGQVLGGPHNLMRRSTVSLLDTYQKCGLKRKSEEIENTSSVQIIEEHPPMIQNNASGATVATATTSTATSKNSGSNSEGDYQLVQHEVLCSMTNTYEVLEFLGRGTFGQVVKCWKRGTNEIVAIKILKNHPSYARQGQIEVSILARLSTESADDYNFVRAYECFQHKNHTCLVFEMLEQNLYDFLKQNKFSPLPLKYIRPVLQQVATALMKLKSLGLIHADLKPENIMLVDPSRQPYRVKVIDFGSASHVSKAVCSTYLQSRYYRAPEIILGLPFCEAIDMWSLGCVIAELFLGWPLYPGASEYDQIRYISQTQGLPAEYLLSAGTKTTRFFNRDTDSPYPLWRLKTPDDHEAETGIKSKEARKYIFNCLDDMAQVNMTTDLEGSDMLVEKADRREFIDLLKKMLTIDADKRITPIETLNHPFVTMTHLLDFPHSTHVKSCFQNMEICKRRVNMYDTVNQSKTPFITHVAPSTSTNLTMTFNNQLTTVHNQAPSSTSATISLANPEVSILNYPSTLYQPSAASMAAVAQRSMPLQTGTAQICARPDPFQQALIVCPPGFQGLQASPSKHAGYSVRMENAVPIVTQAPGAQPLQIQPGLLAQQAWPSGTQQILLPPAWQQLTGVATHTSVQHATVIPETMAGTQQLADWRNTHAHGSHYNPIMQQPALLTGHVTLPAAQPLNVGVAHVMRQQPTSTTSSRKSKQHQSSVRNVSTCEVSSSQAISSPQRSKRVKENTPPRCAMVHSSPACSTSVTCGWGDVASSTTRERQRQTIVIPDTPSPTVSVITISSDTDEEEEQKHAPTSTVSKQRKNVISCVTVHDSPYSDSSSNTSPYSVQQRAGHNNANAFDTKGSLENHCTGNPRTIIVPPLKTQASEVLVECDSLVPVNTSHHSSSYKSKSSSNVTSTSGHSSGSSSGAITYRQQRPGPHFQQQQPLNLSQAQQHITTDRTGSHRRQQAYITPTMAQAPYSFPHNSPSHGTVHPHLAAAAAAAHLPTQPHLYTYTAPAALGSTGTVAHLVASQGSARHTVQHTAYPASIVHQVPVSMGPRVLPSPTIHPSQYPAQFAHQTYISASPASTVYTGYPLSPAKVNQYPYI
DYRK3, sequence (O43781 whole entry): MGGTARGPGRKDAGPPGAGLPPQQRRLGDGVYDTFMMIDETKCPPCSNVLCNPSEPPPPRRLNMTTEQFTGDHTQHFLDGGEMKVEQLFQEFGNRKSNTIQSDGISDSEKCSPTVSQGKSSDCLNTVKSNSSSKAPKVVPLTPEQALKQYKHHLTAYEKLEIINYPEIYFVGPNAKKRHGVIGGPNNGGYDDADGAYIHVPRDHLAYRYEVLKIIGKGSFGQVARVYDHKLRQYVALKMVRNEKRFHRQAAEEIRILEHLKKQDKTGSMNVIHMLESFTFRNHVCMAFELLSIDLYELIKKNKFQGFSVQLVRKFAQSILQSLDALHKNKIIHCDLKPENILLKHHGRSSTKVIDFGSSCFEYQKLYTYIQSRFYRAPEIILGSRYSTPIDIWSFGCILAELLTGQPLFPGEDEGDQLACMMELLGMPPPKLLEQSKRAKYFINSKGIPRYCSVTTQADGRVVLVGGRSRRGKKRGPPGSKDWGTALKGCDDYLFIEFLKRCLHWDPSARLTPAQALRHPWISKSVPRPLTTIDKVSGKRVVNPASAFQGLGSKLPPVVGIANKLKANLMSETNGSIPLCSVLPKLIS
NEK6, sequence (Q9HC98 whole entry): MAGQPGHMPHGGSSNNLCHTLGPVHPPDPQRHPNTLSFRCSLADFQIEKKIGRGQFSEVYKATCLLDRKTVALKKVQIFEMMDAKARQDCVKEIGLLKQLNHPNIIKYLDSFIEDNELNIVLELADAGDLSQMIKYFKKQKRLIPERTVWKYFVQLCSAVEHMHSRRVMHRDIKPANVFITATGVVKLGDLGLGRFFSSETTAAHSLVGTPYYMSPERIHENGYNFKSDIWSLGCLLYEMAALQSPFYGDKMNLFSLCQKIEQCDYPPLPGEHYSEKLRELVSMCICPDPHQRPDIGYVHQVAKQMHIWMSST

Regarding `C=CS(=O)(=O)c1ccc(Nc2nc(OCC3CCCCC3)c3nc[nH]c3n2)cc1` [NU6300, 6-(cyclohexylmethoxy)-N-(4-(vinylsulfonyl)phenyl)-9H-purin-2-amine], the remaining activity at 1 µM at CAMKKβ amounted to 73%; on DAPK1 it was 83%; on DYRK3, 91%; at EPH-B1 it was 78%; on EPH-B2, 96%; on ERK1 it was 70%. Further, the remaining activity at 1 µM at HER4 was 73%; at HIPK2 it was 61%; on MKK6, 85%; on NEK6, 70%; at PAK2, 92%; on PAK4, 35%. For the same compound, the remaining activity at 1 µM at SGK1 was 93%; on p38γ MAPK, 104%.
